Experimental data published in US9447028B2, “Therapeutic aryl-amido-aryl compounds and their use” (King's College London, priority 2009, dated 2016).

Experiments:
RARα = biological target: T1, RARα (Homo sapiens, UniProt P10276); experiment: Transactivation assay for RAR alpha (gal4-RAR fusion, luciferase reporter, COS-7 cells); type: cell-based; settings: for RARα/RARβ ratio (*): fold-selectivity for RARα over RARβ; for RARα activity ratio: ratio of test compound EC50 to that of atRA on the same plate
T1 construct: gal4 (fusion partner); expressed in transfected cells; host or cells: COS-7
T1 sequence (P10276 183-417 limits assumed): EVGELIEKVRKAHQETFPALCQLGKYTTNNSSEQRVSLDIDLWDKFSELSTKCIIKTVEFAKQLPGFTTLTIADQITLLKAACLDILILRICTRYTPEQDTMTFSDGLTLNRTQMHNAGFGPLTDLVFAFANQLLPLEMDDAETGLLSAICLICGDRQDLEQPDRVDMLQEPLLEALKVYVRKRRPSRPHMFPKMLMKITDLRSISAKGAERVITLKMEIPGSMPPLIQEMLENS
How it was run: (§1)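 COS-7 cells co-transfected with gal4–RAR ligand-binding-domain fusion and pFR-luc reporter, then treated with compound in phenol-red-free DMEM (1% DMSO) for about one day. Luciferase read after lysis with BrightGlo; EC50 values from replicate experiments given as a ratio of means.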

RARγ = biological target: T2, RARγ (Homo sapiens, UniProt P13631); experiment: Transactivation assay for RAR gamma (gal4-RAR fusion, luciferase reporter, COS-7 cells); type: cell-based; settings: ratio of test compound EC50 to that of atRA; inactive = no agonist action at the highest concentration tested
T2 construct: gal4 (fusion partner); expressed in transfected cells; host or cells: COS-7
T2 sequence (P13631 185-419 limits assumed): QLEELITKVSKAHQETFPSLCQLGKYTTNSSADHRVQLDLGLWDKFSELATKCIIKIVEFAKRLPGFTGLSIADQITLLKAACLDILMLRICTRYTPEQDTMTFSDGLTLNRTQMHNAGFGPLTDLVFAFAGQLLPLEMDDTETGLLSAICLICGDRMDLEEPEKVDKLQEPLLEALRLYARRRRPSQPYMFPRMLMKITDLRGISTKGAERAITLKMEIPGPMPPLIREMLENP
How it was run: as §1

RARβ = biological target: T3, RARβ (Homo sapiens, UniProt P10826); experiment: Transactivation assay for RAR beta (gal4-RAR fusion, luciferase reporter, COS-7 cells); type: cell-based; settings: ratio of test compound EC50 to that of atRA; inactive = no agonist action at the highest concentration tested
T3 construct: gal4 (fusion partner); expressed in transfected cells; host or cells: COS-7
T3 sequence (P10826 183-417 limits assumed): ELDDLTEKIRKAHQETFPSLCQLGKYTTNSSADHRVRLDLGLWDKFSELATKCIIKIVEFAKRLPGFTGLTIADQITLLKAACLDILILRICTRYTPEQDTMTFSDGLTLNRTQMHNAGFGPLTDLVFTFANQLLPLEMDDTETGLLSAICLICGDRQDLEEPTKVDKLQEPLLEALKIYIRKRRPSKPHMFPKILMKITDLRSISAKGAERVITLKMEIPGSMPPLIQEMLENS
How it was run: as §1

[1] = system: disintegrin-metalloproteinases 10 (ADAM10); experiment: ADAM10 expression in cultured cortical neurons; type: cell-based, mouse; set-up: dose or concentration left out as unconfirmed; settings: Agonist; analysed 3 days later (Table 5, introduced as ADAM10 data)
Experimental: (§2) Neuronal cultures were prepared from embryonic E19 mouse embryos. Fetal brain cortices were dissected and freed from meninges. […] Cortical cells (1×10^5) were plated onto poly-L-lysine (10 μg/mL) coated glass coverslips in 24-well tissue culture plates. They were cultured in Neurobasal medium containing B27 supplement, 2 mM glutamine, 20 μg/mL penicillin stepromycin, and 0.25% glucose. They were maintained for 7 days before been treated. For each treatment, 3 coverslips were used and the experiment was repeated 3 times.
(§3) After 3 days of culture, media was removed and Hoechst 33342 (10 μM) and propidium iodide (10 μM) in PBS was added to the wells for 15 minutes. Only neurons positive for Hoechst 33342 but negative for propidium iodide were counted as surviving neurons. […] The antibodies used were α chAT (1:200, Chemicon™), α APP (1:100, Chemicon™) and α ADAM10 (1:200, Chemicon™). Secondary antibody used was anti-rabbit Cy3 or Cy5 conjugated (Jackson™, used at 1:1000). The nuclear marker DAPI (1 μg/mL) was used to stain all cells. […]

[2] = system: amyloid precursor protein (APP); experiment: APP expression in cultured cortical neurons; type: cell-based, mouse; set-up: dose or concentration left out as unconfirmed; settings: Agonist; analysed 3 days later (Table 4)
Experimental: as §2, §3

cortical neurons = experiment: Survival of cortical neurons in the presence of 10 μM Aβ42; type: cell-based, mouse; settings: for % Surviving Neurons: 10 μM Aβ42, 3 days; for Neuronal survival in the presence of Aβ42 (in words): 10 μM Aβ42, 0.01-1 μM agonist, compared to control cultures treated only with Aβ42
Experimental: as §2
After 3 days of culture, media was removed and Hoechst 33342 (10 μM) and propidium iodide (10 μM) in PBS was added to the wells for 15 minutes. Only neurons positive for Hoechst 33342 but negative for propidium iodide were counted as surviving neurons. In addition, cortical cultures were treated with agonist alone (0.1 μM) and assayed for chAT, APP, and ADAM10. The antibodies used were α chAT (1:200, Chemicon™), α APP (1:100, Chemicon™) and α ADAM10 (1:200, Chemicon™). Secondary antibody used was anti-rabbit Cy3 or Cy5 conjugated (Jackson™, used at 1:1000). The nuclear marker DAPI (1 μg/mL) was used to stain all cells.
Cortical cultures were treated after 7 days with 10 μM Aβ42 and supplemented with 0.01-1 μM of agonist. After 3 days, the number of surviving cells was determined. […] As atRA is a weak pan-agonist of all the RARs, it was decided to identify the specific receptor involved in this process using RAR specific agonists.

Aβ40 = Aβ40 level in cortex of Tg2576 mice after oral agonist (sandwich ELISA); type: in vivo; settings: chow with 1 mg/kg agonist for 3 months, six months of age; control = 100
Experimental: (§4) Twenty seven 3 month old Tg2576 mice (Taconic™) were split into 3 groups of 9. One group was fed normal chow, the other groups were fed with 1 mg/Kg RARα agonist, either AM580 or BMS194753. Animals were analysed at 6 and 9 months of age.
(§5) Animals were perfused with PBS. The brain was dissected and one hemisegment was fixed in 4% PFA overnight, 20% sucrose for 3 days, embedded in OCT compound and stored frozen. The cortex was removed form the other hemisegment and the protein extracted.
(§6) To measure Aβ40 and Aβ42 levels, a sandwich ELISA assay kit (Biosource™) was used according to the manufactures instructions. A 1:5000 of the guanidine-soluble extracts were made with TBS containing 5% BSA and 1×protease inhibitor (Calbiochem™) and centrifuged at 16000×g for 20 minutes at 4° C. Samples were diluted 1:10000 in sample diluent provided by the manufacturer.
(§7) These are Tg2576 mice, which over-express the Swedish mutation of APP. These mice overproduce Aβ40 and Aβ42. Three month old mice were fed for 3 months with normal chow or chow supplemented with 1 mg/kg of agonist. At six months of age, there is a dramatic decrease in both Aβ40 and Aβ42 levels in the mice fed with the RARα agonist, as compared to the normal fed mice.

Aβ42 = Aβ42 level in cortex of Tg2576 mice after oral agonist (sandwich ELISA); type: in vivo; settings: chow with 1 mg/kg agonist for 3 months, six months of age; control = 100
Experimental: as §4, §5, §6, §7

[3] = system: choline acetyltransferase (chAT); experiment: chAT expression in cultured cortical neurons; type: cell-based, mouse; set-up: dose or concentration left out as unconfirmed; settings: Agonist; analysed 3 days later
Experimental: as §2, §3

| SMILES | RARα/RARβ ratio (*) (RARα) | RARα activity ratio (RARα) | RARγ activity ratio (RARγ) | RARβ activity ratio (RARβ) | Number of APP Neurons [1] | Number of APP Neurons [2] | % Surviving Neurons (cortical neurons; 0.01 μM agonist) | % Surviving Neurons (cortical neurons; 0.1 μM agonist) | % Surviving Neurons (cortical neurons; 1.0 μM agonist) | Neuronal survival in the presence of Aβ42 (in words) (cortical neurons) | % of Aβ40 (Aβ40) | % of Aβ42 (Aβ42) | Number of chAT Neurons [3] |
| --- | --- | --- | --- | --- | --- | --- | --- | --- | --- | --- | --- | --- | --- |
| CCOc1cc(C(=O)Nc2ccc(C(=O)O)c(C)c2)cc(OC(CC)CC)c1Cl [AAA-115, 4-(4-Chloro-3-ethoxy-5-(pentan-3-yloxy)benzamido)-2-methylbenzoic acid] | 58 | 2.6 | 25172 | 150 |  |  |  |  |  |  |  |  |  |
| CCOc1cc(C(=O)Nc2ccc(C(=O)O)c(F)c2)cc(OC(CC)CC)c1Cl [AAA-116, 4-(4-Chloro-3-ethoxy-5-(pentan-3-yloxy)benzamido)-2-fluorobenzoic acid] | 46 | 4.5 | 55172 | 208 |  |  |  |  |  |  |  |  |  |
| Cc1cc(NC(=O)c2cc(OC(C)C)c(Cl)c(OC(C)C)c2)ccc1C(=O)O [AAA-117, 4-(4-Chloro-3,5-diisopropoxybenzamido)-2-methylbenzoic acid] | 68 | 4 | 29730 | 273 |  |  |  |  |  |  |  |  |  |
| COc1cc(C(=O)Nc2ccc(C(=O)O)cc2)cc(OC(C)C)c1Cl [AAA-118, 4-(4-Chloro-3-isopropoxy-5-methoxybenzamido)benzoic acid] | 47 | 36 | 933333 | 1700 |  |  |  |  |  |  |  |  |  |
| CC(C)Oc1cc(C(=O)Nc2ccc(C(=O)O)cc2)cc(OC(C)C)c1F [AAA-119, 4-(4-Fluoro-3,5-diisopropoxybenzamido)benzoic acid] | 192 | 26 | >42000 | 5000 |  |  |  |  |  |  |  |  |  |
| CC(C)Oc1cc(C(=O)Nc2ccc(C(=O)O)cc2)cc(C(F)(F)F)c1OC(C)C [AAA-120, 4-(3,4-Diisopropoxy-5-(trifluoromethyl)benzamido)benzoic acid] | 157 | 0.89 | 2162 | 142 |  |  |  |  |  |  |  |  |  |
| CC1(C)CCC(C)(C)c2cc(C(=O)Nc3ccc(C(=O)O)cc3)ccc21 [AM 580] |  |  |  |  | 19 ± 3 | 11 ± 2 | 52 ± 7% | 70 ± 6% | 99 ± 9% | notably better | 4 ± 1% | 8 ± 1% |  |
| CC1(C)C(=O)C(C)(C)c2cc(C(=O)Nc3ccc(C(=O)O)cc3)ccc21 [BMS 194753] |  |  |  |  | 20 ± 2 | 10 ± 2 | 57 ± 7% | 69 ± 3% | 88 ± 4% | notably better | 3 ± 0.5% | 7 ± 1% | 37 ± 3 |
| O=C(O)c1ccc2cc(-c3ccc(O)c(C45CC6CC(CC(C6)C4)C5)c3)ccc2c1 [CD 437] |  |  |  |  | 2 ± 0.75 | 22 ± 3 | 53 ± 3% | 30 ± 11% | 26 ± 10% | notably worse |  |  | 2 ± 1 |
| COc1ccc(-c2ccc3cc(C(=O)O)ccc3c2)cc1C1(C)CCCCC1 [CD 2019] |  |  |  |  | 1 ± 0.5 | 23 ± 2 | 52 ± 3% | 58 ± 5% | 60 ± 5% | notably worse |  |  | 8 ± 1 |
| CCOc1ccc(C(=O)Nc2ccc(C(=O)O)cc2)cc1C(F)(F)F [XXX-01, 4-(4-Ethoxy-3-(trifluoromethyl)benzamido)benzoic acid, reference compound] | 7.9 | 327 | inactive | 2570 |  |  |  |  |  |  |  |  |  |
| O=C(O)c1ccc(NC(=O)c2cc(Cl)cc(Cl)c2)cc1 [XXX-03, 4-(3,5-Dichlorobenzamido)benzoic acid, reference compound] | 7.1 | 90 | inactive | 642 |  |  |  |  |  |  |  |  |  |
| CC1=C(/C=C/C(C)=C/C=C/C(C)=C/C(=O)O)C(C)(C)CCC1 [atRA, all trans retinoic acid] | 1 | 1 | 1 | 1 | 11 ± 1.5 | 15 ± 2 | 53 ± 4% | 69 ± 4% | 82 ± 4% | increase in cell survival with increasing dose |  |  | 16 ± 2 |
